Test results published in ChEMBL document CHEMBL3745631, “Discovery of highly potent and selective Bruton's tyrosine kinase inhibitors: Pyridazinone analogs with improved metabolic stability” (Bioorg Med Chem Lett, 2016).

Key:
[1] = target: Tyrosine-protein kinase BTK (Mus musculus, UniProt P35991); assay: Inhibition of BTK in Balb/c mouse B cells assessed as inhibition of anti-IgM-stimulated CD86 expression by flow cytometry; type: cell-based
[2] = target: Angiopoietin-1 receptor (Homo sapiens) (UniProt Q02763); assay: Inhibition of Tie2 (unknown origin) at 1 uM
[3] = target: Serine/threonine-protein kinase PAK 6 (Homo sapiens) (UniProt Q9NQU5); assay: Inhibition of PAK6 (unknown origin) at 1 uM
[4] = target: SRSF protein kinase 3 (Homo sapiens) (UniProt Q9UPE1); assay: Inhibition of MSSK1 (unknown origin) at 1 uM
[5] = target: Serine/threonine-protein kinase 4 (Homo sapiens) (UniProt Q13043); assay: Inhibition of MST1 (unknown origin) at 1 uM
[6] = target: T1, Maternal embryonic leucine zipper kinase (Homo sapiens, UniProt Q14680); assay: Inhibition of MELK (unknown origin) at 1 uM
Salmonella typhimurium = assay: Genotoxicity in Salmonella typhimurium TA98 by Ames test in absence of S9 fraction; type: toxicity, organism-based; settings: salmonella enterica subsp. enterica serovar typhimurium
[7] = target: Serine/threonine-protein kinase 17A (Homo sapiens) (UniProt Q9UEE5); assay: Inhibition of DRAK1 (unknown origin) at 1 uM
[8] = target: Ribosomal protein S6 kinase beta-1 (Homo sapiens) (UniProt P23443); assay: Inhibition of p70S6K (unknown origin) at 1 uM
[9] = target: Activated CDC42 kinase 1 (Homo sapiens) (UniProt Q07912); assay: Inhibition of TNK2 (unknown origin) at 1 uM
[10] = target: Tyrosine-protein kinase receptor TYRO3 (Homo sapiens) (UniProt Q06418); assay: Inhibition of Rse (unknown origin) at 1 uM
[11] = target: Insulin receptor (Homo sapiens) (UniProt P06213); assay: Inhibition of InsR (unknown origin) at 1 uM
[12] = target: Death-associated protein kinase 1 (Homo sapiens) (UniProt P53355); assay: Inhibition of DAPK1 (unknown origin) at 1 uM
[13] = target: Tyrosine-protein kinase Yes (Homo sapiens) (UniProt P07947); assay: Inhibition of Yes (unknown origin) at 1 uM
[14] = target: Dual specificity protein kinase CLK3 (Homo sapiens) (UniProt P49761); assay: Inhibition of CLK3 (unknown origin) at 1 uM
[15] = target: CDK9/cyclin T1 (Homo sapiens) (UniProt O60563+P50750); assay: Inhibition of CDK9/cyclinT1 (unknown origin) at 1 uM; type: protein-complex assay
[16] = target: Wee1-like protein kinase (Homo sapiens) (UniProt P30291); assay: Inhibition of WEE1 (unknown origin) at 1 uM
[17] = target: Serine/threonine-protein kinase PLK3 (Homo sapiens) (UniProt Q9H4B4); assay: Inhibition of PLK3 (unknown origin) at 1 uM
[18] = target: Homeodomain-interacting protein kinase 1 (Homo sapiens) (UniProt Q86Z02); assay: Inhibition of HIPK1 (unknown origin) at 1 uM
[19] = Oral bioavailability in mouse at 5 mg/kg by LC-MS/MS analysis; type: ADME, organism-based; settings: in vivo
[20] = target: Vascular endothelial growth factor receptor 2 (Homo sapiens) (UniProt P35968); assay: Inhibition of KDR (unknown origin) at 1 uM
[21] = target: Mitogen-activated protein kinase kinase kinase 10 (Homo sapiens) (UniProt Q02779); assay: Inhibition of MLK2 (unknown origin) at 1 uM
Liver microsome = assay: Intrinsic clearance in human liver microsomes at 1 uM by LC-MS/MS analysis in absence of NADPH; type: ADME
[22] = target: Glycogen synthase kinase-3 alpha (Homo sapiens) (UniProt P49840); assay: Inhibition of GSK3 alpha (unknown origin) at 1 uM
[23] = target: Aurora kinase A (Homo sapiens) (UniProt O14965); assay: Inhibition of AuroraA (unknown origin) at 1 uM
[24] = target: Protein-tyrosine kinase 2-beta (Homo sapiens) (UniProt Q14289); assay: Inhibition of FAK2 (unknown origin) at 1 uM
[25] = target: Fibroblast growth factor receptor 3 (Homo sapiens) (UniProt P22607); assay: Inhibition of FGFR3 (unknown origin) at 1 uM
[26] = target: Protein-tyrosine kinase 6 (Homo sapiens) (UniProt Q13882); assay: Inhibition of Brk (unknown origin) at 1 uM
[27] = target: Dual specificity protein kinase TTK (Homo sapiens) (UniProt P33981); assay: Inhibition of TTK (unknown origin) at 1 uM
[28] = target: Mast/stem cell growth factor receptor Kit (Homo sapiens) (UniProt P10721); assay: Inhibition of Kit (unknown origin) at 1 uM
[29] = target: TGF-beta-activated kinase 1 and MAP3K7-binding protein 1 (Homo sapiens) (UniProt Q15750); assay: Inhibition of TAK1-TAB1 (unknown origin) at 1 uM
[30] = target: Receptor-type tyrosine-protein kinase FLT3 (Homo sapiens) (UniProt P36888); assay: Inhibition of Flt3 (unknown origin) at 1 uM
[31] = target: Dual specificity tyrosine-phosphorylation-regulated kinase 4 (Homo sapiens) (UniProt Q9NR20); assay: Inhibition of DYRK4 (unknown origin) at 1 uM
[32] = target: Focal adhesion kinase 1 (Homo sapiens) (UniProt Q05397); assay: Inhibition of FAK (unknown origin) at 1 uM
[33] = target: Dual specificity mitogen-activated protein kinase kinase 6 (Homo sapiens) (UniProt P52564); assay: Inhibition of MKK6 (unknown origin) at 1 uM
[34] = target: Serine/threonine-protein kinase Sgk3 (Homo sapiens) (UniProt Q96BR1); assay: Inhibition of SGK3 (unknown origin) at 1 uM
[35] = target: T1, Maternal embryonic leucine zipper kinase; assay: Inhibition of MELK (unknown origin)
[36] = target: Vascular endothelial growth factor receptor 3 (Homo sapiens) (UniProt P35916); assay: Inhibition of Flt4 (unknown origin) at 1 uM
[37] = target: Tyrosine-protein kinase Fyn (Homo sapiens) (UniProt P06241); assay: Inhibition of Fyn (unknown origin) at 1 uM
[38] = target: Sphingosine kinase 1 (Homo sapiens) (UniProt Q9NYA1); assay: Inhibition of SPHK1 (unknown origin) at 1 uM
[39] = Oral bioavailability in rat at 5 mg/kg by LC-MS/MS analysis; type: ADME, organism-based; settings: in vivo
[40] = target: Tyrosine-protein kinase ABL1 (Homo sapiens) (UniProt P00519); assay: Inhibition of Abl (unknown origin) at 1 uM
[41] = target: Serine/threonine-protein kinase MRCK alpha (Homo sapiens) (UniProt Q5VT25); assay: Inhibition of MRCK alpha (unknown origin) at 1 uM
[42] = target: Serine/threonine-protein kinase WNK2 (Homo sapiens) (UniProt Q9Y3S1); assay: Inhibition of WNK2 (unknown origin) at 1 uM
[43] = target: 3-phosphoinositide-dependent protein kinase 1 (Homo sapiens) (UniProt O15530); assay: Inhibition of PDK1 (unknown origin) at 1 uM by direct binding assay

Sequence of Vascular endothelial growth factor receptor 3 (Homo sapiens) (P35916 whole entry): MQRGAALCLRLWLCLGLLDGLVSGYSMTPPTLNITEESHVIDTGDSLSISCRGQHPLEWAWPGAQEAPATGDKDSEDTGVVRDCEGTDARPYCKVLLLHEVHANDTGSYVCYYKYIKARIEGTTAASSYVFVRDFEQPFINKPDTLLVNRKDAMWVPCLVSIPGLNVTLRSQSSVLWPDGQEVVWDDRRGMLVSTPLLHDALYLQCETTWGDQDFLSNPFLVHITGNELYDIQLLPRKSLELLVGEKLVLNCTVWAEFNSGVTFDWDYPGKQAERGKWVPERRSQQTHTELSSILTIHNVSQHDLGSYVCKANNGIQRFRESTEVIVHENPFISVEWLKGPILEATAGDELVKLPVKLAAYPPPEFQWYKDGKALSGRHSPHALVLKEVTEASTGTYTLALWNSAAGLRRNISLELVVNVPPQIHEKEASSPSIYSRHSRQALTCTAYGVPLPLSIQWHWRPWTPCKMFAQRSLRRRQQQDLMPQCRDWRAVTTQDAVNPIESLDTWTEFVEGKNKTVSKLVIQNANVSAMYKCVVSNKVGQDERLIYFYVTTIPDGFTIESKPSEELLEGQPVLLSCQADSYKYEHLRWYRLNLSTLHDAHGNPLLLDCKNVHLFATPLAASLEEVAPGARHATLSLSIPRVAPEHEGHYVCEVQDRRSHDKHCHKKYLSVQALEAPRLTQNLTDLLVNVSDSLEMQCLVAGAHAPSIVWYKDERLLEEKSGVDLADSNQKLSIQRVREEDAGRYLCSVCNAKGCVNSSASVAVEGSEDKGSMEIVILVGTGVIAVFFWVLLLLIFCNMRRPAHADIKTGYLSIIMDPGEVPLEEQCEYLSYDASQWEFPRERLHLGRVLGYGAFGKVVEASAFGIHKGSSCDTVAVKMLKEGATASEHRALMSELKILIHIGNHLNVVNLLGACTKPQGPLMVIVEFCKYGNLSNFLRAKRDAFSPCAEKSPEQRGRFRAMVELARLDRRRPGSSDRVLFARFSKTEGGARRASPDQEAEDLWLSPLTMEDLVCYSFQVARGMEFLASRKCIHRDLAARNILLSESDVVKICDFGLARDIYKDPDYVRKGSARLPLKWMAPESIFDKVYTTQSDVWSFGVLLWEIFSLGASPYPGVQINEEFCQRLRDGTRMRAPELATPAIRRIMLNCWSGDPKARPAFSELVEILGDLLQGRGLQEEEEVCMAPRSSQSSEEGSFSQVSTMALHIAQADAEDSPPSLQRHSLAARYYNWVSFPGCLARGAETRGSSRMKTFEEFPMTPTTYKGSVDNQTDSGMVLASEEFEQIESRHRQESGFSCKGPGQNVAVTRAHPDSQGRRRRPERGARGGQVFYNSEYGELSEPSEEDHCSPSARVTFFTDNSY
Sequence of TGF-beta-activated kinase 1 and MAP3K7-binding protein 1 (Homo sapiens) (Q15750 whole entry): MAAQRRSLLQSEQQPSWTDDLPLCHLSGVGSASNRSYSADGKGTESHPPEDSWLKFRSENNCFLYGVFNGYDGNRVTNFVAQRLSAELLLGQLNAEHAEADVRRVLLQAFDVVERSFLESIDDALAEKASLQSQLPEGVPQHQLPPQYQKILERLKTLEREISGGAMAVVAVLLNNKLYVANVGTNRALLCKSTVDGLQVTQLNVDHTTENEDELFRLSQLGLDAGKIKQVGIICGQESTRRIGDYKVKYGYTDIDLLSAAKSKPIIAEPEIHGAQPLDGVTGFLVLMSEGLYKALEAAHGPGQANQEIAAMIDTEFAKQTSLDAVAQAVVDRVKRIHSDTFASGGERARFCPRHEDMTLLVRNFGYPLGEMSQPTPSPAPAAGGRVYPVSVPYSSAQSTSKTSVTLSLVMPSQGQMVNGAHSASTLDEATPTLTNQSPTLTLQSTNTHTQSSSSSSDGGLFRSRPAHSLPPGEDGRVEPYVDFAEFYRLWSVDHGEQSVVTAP
Sequence of Dual specificity protein kinase TTK (Homo sapiens) (P33981 whole entry): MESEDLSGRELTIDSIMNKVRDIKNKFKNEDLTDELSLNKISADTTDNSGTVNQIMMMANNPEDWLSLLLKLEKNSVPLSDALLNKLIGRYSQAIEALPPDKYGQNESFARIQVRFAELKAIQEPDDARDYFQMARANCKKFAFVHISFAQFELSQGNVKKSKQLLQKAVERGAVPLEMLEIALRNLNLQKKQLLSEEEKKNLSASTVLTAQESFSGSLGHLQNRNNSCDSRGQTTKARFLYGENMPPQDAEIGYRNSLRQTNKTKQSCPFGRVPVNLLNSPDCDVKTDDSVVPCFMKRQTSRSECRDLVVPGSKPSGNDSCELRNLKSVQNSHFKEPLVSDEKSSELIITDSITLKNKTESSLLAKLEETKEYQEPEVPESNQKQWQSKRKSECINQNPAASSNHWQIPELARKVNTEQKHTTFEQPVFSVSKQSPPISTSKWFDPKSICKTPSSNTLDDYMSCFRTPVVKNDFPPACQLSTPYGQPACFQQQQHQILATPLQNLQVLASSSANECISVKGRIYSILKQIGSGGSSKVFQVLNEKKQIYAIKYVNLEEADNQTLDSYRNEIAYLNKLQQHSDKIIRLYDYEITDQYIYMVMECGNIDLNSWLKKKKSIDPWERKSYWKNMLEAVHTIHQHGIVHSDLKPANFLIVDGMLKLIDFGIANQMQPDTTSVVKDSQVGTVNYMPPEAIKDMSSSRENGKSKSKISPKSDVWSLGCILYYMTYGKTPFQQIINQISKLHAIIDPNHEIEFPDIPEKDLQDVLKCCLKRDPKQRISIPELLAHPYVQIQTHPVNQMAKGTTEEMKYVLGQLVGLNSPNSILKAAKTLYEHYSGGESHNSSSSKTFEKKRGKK
Sequence of Insulin receptor (Homo sapiens) (P06213 28-758 limits assumed): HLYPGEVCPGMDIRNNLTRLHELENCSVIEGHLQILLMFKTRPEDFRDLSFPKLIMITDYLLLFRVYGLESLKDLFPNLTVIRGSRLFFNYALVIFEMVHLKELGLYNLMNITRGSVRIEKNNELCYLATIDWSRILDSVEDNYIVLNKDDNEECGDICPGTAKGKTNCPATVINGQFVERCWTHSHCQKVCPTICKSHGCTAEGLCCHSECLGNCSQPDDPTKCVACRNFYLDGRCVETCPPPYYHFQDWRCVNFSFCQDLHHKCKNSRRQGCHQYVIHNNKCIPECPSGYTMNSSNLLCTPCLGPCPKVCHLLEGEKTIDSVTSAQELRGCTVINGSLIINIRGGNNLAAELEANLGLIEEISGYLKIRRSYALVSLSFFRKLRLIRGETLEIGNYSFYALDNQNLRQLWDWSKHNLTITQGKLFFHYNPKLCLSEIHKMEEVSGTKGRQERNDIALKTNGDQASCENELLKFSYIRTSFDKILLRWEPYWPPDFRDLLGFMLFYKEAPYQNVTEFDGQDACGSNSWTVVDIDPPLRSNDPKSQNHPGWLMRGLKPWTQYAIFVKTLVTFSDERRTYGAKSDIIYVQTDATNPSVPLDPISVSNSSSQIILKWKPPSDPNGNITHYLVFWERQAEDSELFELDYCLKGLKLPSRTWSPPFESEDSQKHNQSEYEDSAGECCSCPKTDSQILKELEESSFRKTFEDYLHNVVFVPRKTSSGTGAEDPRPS
Sequence of Insulin receptor (Homo sapiens) (P06213 763-1382 limits assumed): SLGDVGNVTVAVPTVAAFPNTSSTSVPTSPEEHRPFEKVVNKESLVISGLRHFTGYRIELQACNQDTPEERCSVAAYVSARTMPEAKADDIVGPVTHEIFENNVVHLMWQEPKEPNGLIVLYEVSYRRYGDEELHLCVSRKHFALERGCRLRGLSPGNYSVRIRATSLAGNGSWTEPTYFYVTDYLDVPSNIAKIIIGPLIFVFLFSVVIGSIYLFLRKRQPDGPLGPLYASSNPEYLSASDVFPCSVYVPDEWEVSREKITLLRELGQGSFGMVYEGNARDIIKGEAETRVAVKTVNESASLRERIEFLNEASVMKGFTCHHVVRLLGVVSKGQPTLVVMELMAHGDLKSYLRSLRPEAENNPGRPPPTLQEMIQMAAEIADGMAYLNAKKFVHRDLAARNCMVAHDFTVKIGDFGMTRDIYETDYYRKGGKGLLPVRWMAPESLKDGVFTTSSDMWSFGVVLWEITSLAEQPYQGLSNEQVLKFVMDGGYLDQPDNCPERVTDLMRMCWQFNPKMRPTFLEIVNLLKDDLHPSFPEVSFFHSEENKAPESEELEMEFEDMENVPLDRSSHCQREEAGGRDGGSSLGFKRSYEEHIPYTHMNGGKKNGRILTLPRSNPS
Sequence of Dual specificity protein kinase CLK3 (Homo sapiens) (P49761 whole entry, looked up): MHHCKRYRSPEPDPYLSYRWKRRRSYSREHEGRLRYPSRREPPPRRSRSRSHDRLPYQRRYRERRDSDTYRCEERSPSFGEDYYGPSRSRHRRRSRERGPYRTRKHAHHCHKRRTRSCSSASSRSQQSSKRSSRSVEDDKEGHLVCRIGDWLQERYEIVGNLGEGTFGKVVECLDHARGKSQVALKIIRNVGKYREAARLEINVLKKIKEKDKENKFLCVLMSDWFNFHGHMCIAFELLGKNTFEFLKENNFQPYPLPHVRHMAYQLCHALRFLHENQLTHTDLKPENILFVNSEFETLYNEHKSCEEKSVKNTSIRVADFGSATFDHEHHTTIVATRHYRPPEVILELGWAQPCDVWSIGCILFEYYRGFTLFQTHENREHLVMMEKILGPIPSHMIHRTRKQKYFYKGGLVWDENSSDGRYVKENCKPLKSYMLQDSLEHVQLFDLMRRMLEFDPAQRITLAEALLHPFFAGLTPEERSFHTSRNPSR
Sequence of Aurora kinase A (Homo sapiens) (O14965 whole entry): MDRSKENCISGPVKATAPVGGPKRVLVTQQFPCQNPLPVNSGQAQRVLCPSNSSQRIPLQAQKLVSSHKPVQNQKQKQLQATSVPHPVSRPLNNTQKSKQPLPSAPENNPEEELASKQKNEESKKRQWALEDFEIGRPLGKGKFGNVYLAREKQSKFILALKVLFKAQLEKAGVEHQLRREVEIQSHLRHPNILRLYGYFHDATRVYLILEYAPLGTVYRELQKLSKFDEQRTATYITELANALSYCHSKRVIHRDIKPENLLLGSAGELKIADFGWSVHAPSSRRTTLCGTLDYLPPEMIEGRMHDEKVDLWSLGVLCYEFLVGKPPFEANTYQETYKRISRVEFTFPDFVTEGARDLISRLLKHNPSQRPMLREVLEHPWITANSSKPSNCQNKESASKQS

Question: What does the source list for `Cc1c(-c2cc(Nc3cc4n(n3)CCN(C)C4)c(=O)[nH]n2)ccc(F)c1NC(=O)c1cc2ccccc2s1`?
Answer: IC50 [1]: 0.091 µM; inhibition [2]: 7.4%; inhibition [3]: 1.8%; inhibition [4]: 3.4%; inhibition [5]: -2.6%; inhibition [6]: 50%; Activity (Salmonella typhimurium): Non-toxic; inhibition [7]: 7.6%; inhibition [8]: -2.8%; inhibition [9]: 15.9%; inhibition [10]: 2.5%; inhibition [11]: 13.8%; inhibition [12]: 0.1%; inhibition [13]: 20.8%; inhibition [14]: 2.9%; inhibition [15]: 1%; inhibition [16]: -1.8%; inhibition [17]: 14.1%; inhibition [18]: 0.4%; bioavailability [19]: 34%; inhibition [20]: -2.4%; inhibition [21]: 7.3%; CLH (Liver microsome): 6 mL/min/kg; inhibition [22]: 7.5%; inhibition [23]: 1.1%; inhibition [24]: 4%; inhibition [25]: 1.8%; inhibition [26]: 3.5%; inhibition [27]: 7.2%; inhibition [28]: 1.9%; inhibition [29]: 13.7%; inhibition [30]: 11.6%; inhibition [31]: -1.1%; inhibition [32]: 3.6%; inhibition [33]: 3%; inhibition [34]: -1.3%; IC50 [35]: > 10 µM; inhibition [36]: 2.7%; inhibition [37]: 7%; inhibition [38]: 35.1%; bioavailability [39]: 26%; inhibition [40]: 11.3%; inhibition [41]: -4.5%; inhibition [42]: -7.5%; inhibition [43]: -8%
